# Experimental data taken from PMC3797685, “Enhanced Production, Purification, Characterization and Mechanism of Action of Salivaricin 9 Lantibiotic Produced by Streptococcus salivarius NU10” (PLoS ONE, 2013).
# Starred links: 1 amine or outer side, 2 acyl side, 3 side chain; linkers in the order of their positions; H or OH if unused. Positions of bridges follow the written chain, without caps; N, C: chain ends. Non-standard residues stand in square brackets, D forms with d. Residues, ends and D or L forms follow the SMILES beside them. dAbu(3S-yl) = C[C@@H]([C@@H](N[*:1])C(=O)[*:2])[*:3]; Dhb = C/C=C(\N)C(=O)O
# What was measured:
# S. salivarius strain K12 = assay: Salivaricin induction assay, strain K12; format: cell-based, Streptococcus salivarius; conditions: 0.05 ml test sample (titre 4 AU/ml) added to washed cells in M17YESUCa, 18 h anaerobic; well diffusion assay, induced vs control tube
# Text: The bacteriocin-inducing activities present in crude extracts of S. salivarius strains NU10, YU10, K12 and in FPLC-purified salivaricin 9 peptide fractions having anti-Micrococcus luteus activity was investigated in this study. The crude extracts of producer cells designated as BLIS-NU10, BLIS-YU10 and BLIS-K12 were isolated by acidic methanol extraction of the producer cells as described previously. These crude BLIS extracts had the potential to contain at least two lantibiotics on the basis of PCR assessment for their content of lantibiotic structural genes. Strains NU10 and YU10 had the structural genes for salivaricin 9 and salivaricin A and strain K12 had salivaricin A and salivaricin B structural genes. […] Colonies from an 18 h culture of each S. salivarius strain NU10, YU10 and K12 grown anaerobically on BACa agar was used to inoculate 10 ml of M17YESUCa broth and incubated again under the same conditions. The cells were then collected by centrifugation at 18000 x g for 5 min and washed three times in saline buffer to reduce the levels of cell surface-associated lantibiotic before suspending in 10 ml of the same buffer. […] Induction of salivaricin 9 or salivaricin A production was recorded as inhibitory zones surrounding samples from the induced tubes but not the control tubes. […]
# Catalase = assay: Enzyme stability (residual inhibitory activity)
# Protocol: Specific enzymatic effects of denaturation on salivaricin 9 were tested using two wells of 6mm diameter each separated by a distance of 4 mm in CAB plates. One well was filled with 50µl of pure salivaricin 9 while the other was filled with 50µl of the tested enzyme. The plate was incubated at 50°C for 2 hours and then incubated at 37°C overnight before seeding the indicator strain onto the agar surface using a cotton swab. Then the plate was re-incubated at 37°C for 18 hours and the zones of inhibitions that appeared indicated residual activity of salivaricin 9 while absence of inhibition zones indicated the denaturation of the antimicrobial peptide by the applied enzymes namely proteinase K, peptidase, lyticase and catalase.
# Micrococcus luteus = assay: Heat stability (residual inhibitory activity); format: physicochemical; conditions: for Inhibition zone after heat treatment: indicator Micrococcus luteus, titre 800 AU/ml
# Protocol: Heat stability was studied by exposing pure salivaricin 9 to different temperatures for one hour after which the sample was centrifuged and the supernatant tested for inhibitory activity. The stability of the peptide at different pH values was also evaluated and tested for inhibitory activity. Specific enzymatic effects of denaturation on salivaricin 9 were tested using two wells of 6mm diameter each separated by a distance of 4 mm in CAB plates. One well was filled with 50µl of pure salivaricin 9 while the other was filled with 50µl of the tested enzyme. The plate was incubated at 50°C for 2 hours and then incubated at 37°C overnight before seeding the indicator strain onto the agar surface using a cotton swab. Then the plate was re-incubated at 37°C for 18 hours and the zones of inhibitions that appeared indicated residual activity of salivaricin 9 while absence of inhibition zones indicated the denaturation of the antimicrobial peptide by the applied enzymes namely proteinase K, peptidase, lyticase and catalase. The stability of salivaricin 9 to treatment with the chemicals EDTA, SDS, urea, NaCl and β-mercaptoethanol was examined by adding 1% of these chemicals to the bacteriocin followed by incubation for two hours at RT before the samples were centrifuged and the supernatant tested as mentioned above. If the chemical was a solvent such as β-mercaptoethanol, then the solvent was evaporated before testing for antimicrobial activity (Table 4).
# [1] = test system: Staphylococcus aureus RF122; assay: Minimal inhibitory concentration (NCCLS); format: cell-based; design: key: ++++: inhibition zone >12 mm; +++: inhibition zone = 10 mm; ++: inhibition zone < 5 mm; -: No inhibition; conditions: pure salivaricin 9, NCCLS method
# Protocol: (§1) An induced culture of S. salivarius NU10 was centrifuged at 8000 x g to pellet the cells. The cell free supernatant (CFS) was filtered through 0.2 µm sterilized cellulose membrane (Millipore) to ensure that all cell debris was removed. The filtered crude bacteriocin preparation was passed through 100 ml XAD-16 particles (Sigma) packed in a glass column. The column was washed with 400 ml of distilled water followed by 200 ml of 70% methanol before the active fraction was eluted using 200 ml of 95% methanol (adjusted to pH 2) at a flow rate of 15 ml/min. The methanol was removed using a rotary evaporator and the resulting peptide preparation was lyophilized and stored at -20°C. The lyophilized peptide pellets were dissolved in 20 mM sodium phosphate pH 5.8 (binding buffer). Then the sample was injected into a fast protein liquid chromatography (FPLC) system (ÄKTA Purifier™) using HiTrap SP FF 5ml strong cation exchanger column (GE Healthcare) equilibrated with the same buffer at a flow rate of 1 ml/min. Then the column was washed with 10X column volume of the binding buffer before salivaricin 9 was eluted using a linear gradient of 0 to 1M NaCl in 20 mM sodium phosphate buffer at pH 5.8 (Figure 4). All fractions were tested for inhibitory activity using Micrococcus luteus as the indicator. MIC values of pure salivaricin 9 against a set of bacterial indicator strains were determined by following the National Committee for Clinical Laboratory Standards (NCCLS) (Table 3).
# [2] = test system: Actinomyces naeslundii TG2; assay: Minimal inhibitory concentration (NCCLS); format: cell-based; design: key: ++++: inhibition zone >12 mm; +++: inhibition zone = 10 mm; ++: inhibition zone < 5 mm; -: No inhibition; conditions: pure salivaricin 9, NCCLS method
# Protocol: as §1
# [3] = test system: Streptococcus mutans GEJ11; assay: Minimal inhibitory concentration (NCCLS); format: cell-based; design: key: ++++: inhibition zone >12 mm; +++: inhibition zone = 10 mm; ++: inhibition zone < 5 mm; -: No inhibition; conditions: pure salivaricin 9, NCCLS method
# Protocol: as §1
# [4] = test system: Bacillus cereus ATCC14579; assay: Minimal inhibitory concentration (NCCLS); format: cell-based; design: key: ++++: inhibition zone >12 mm; +++: inhibition zone = 10 mm; ++: inhibition zone < 5 mm; -: No inhibition; conditions: pure salivaricin 9, NCCLS method
# Protocol: as §1
# [5] = test system: Haemophilus parainfluenza TONEJ11; assay: Minimal inhibitory concentration (NCCLS); format: cell-based; design: key: ++++: inhibition zone >12 mm; +++: inhibition zone = 10 mm; ++: inhibition zone < 5 mm; -: No inhibition; conditions: pure salivaricin 9, NCCLS method
# Protocol: as §1
# Proteinase K = Proteinase K (Parengyodontium album, UniProt P06873); assay: Enzyme stability (residual inhibitory activity)
# Protocol: Heat stability was studied by exposing pure salivaricin 9 to different temperatures for one hour after which the sample was centrifuged and the supernatant tested for inhibitory activity. The stability of the peptide at different pH values was also evaluated and tested for inhibitory activity. Specific enzymatic effects of denaturation on salivaricin 9 were tested using two wells of 6mm diameter each separated by a distance of 4 mm in CAB plates. One well was filled with 50µl of pure salivaricin 9 while the other was filled with 50µl of the tested enzyme. The plate was incubated at 50°C for 2 hours and then incubated at 37°C overnight before seeding the indicator strain onto the agar surface using a cotton swab. Then the plate was re-incubated at 37°C for 18 hours and the zones of inhibitions that appeared indicated residual activity of salivaricin 9 while absence of inhibition zones indicated the denaturation of the antimicrobial peptide by the applied enzymes namely proteinase K, peptidase, lyticase and catalase. The stability of salivaricin 9 to treatment with the chemicals EDTA, SDS, urea, NaCl and β-mercaptoethanol was examined by adding 1% of these chemicals to the bacteriocin followed by incubation for two hours at RT before the samples were centrifuged and the supernatant tested as mentioned above. […]
# [6] = test system: Lactococcus lactis strain ATCC11454; assay: Induction assay, nisin-producing strain ATCC11454; format: cell-based; conditions: 0.05 ml test sample, 18 h, well diffusion assay
# [7] = test system: Micrococcus luteus ATCC10240; assay: Flow cytometry analysis of membrane disruption (propidium iodide); format: cell-based; conditions: PI 25 µM, 30 minutes at 37°C
# Protocol: For membrane integrity assay using the dye propidium iodide (PI), cultures of Micrococcus luteus ATCC10240 were grown over night at 37°C in THB supplemented with 0.5% glucose (THBG) and then diluted with fresh THBG to an OD600 of 0.1. The cells were centrifuged at 4000 x g for 5 minutes at 4°C and washed twice with washing buffer (2 mM HEPES + 2 mM glucose) before re-suspending in the same buffer and adjusting to OD600 0.1. The cells were exposed to salivaricin 9 (12, 20 µg/ml) or nisin (20 µg/ml) (Sigma) and PI (final concentration 25 µM) before incubating for 30 minutes at 37°C. Nuclease-Free Water (Promega, USA) was added instead of antibiotic and served as a negative control. Samples were analyzed using BD FACSCanto^TM II flow cytometer using excitation at 488 nm and with the standard filter setup. Each sample was examined in triplicate and the geometric mean fluorescence intensity (MFI) of gated cell populations was calculated (Figure 9).
# Proteinase K, sequence (P06873 106-384): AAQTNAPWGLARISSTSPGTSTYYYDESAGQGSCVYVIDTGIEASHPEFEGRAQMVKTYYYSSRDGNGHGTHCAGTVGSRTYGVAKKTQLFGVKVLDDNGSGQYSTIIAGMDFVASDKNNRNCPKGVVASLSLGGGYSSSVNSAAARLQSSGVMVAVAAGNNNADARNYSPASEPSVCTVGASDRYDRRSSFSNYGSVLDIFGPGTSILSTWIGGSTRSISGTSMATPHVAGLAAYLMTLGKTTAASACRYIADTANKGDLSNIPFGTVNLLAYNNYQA
compound,measurement,setting,value
"C/C=C1\NC(=O)[C@H](Cc2c[nH]c3ccccc23)NC(=O)[C@@H]2NC(=O)[C@H](C)NC(=O)[C@H](CC(C)C)NC(=O)[C@H](CC(N)=O)NC(=O)[C@@H]3CS[C@@H](C)[C@@H](NC(=O)[C@H](CC(C)C)NC(=O)[C@@H](NC(=O)[C@@H](NC(=O)CNC(=O)[C@H](CC(N)=O)NC(=O)CN)C(C)C)C(C)C)C(=O)N[C@@H](CC(C)C)C(=O)N[C@@H](C(=O)N[C@@H](Cc4c[nH]cn4)C(=O)N[C@@H](CCC(=O)O)C(=O)N3)[C@H](C)SC[C@H](NC(=O)[C@H](CCCCN)NC(=O)[C@H](CC(C)C)NC(=O)[C@H](CCCCN)NC(=O)[C@H](CCCCN)NC1=O)C(=O)N[C@H](C(=O)O)CS[C@H]2C [Salivaricin 9] (H-GNGVVL[dAbu(3S-yl)]L[dAbu(3S-yl)]HECNLA[dAbu(3S-yl)]W[Dhb]KKLKCC-OH; thioether 7-12, 9-23, 16-24; N-terminus and C-terminus assumed)",Preparation induces inhibitor production in K12,S. salivarius strain K12,No
same,Inhibition zone after enzyme treatment,"Catalase; Catalase 1 mg.ml^-1, adjacent wells, 50 µl each, 50°C 2 hours then 37°C overnight, indicator Micrococcus luteus, titre 800 AU/ml",++++ (inhibition zone >20 mm)
same,Antimicrobial activity after enzyme treatment (in words),Catalase; treated with catalase,remained active
same,Inhibition zone after heat treatment,"Micrococcus luteus; 4, 20, 30, 37, 40, 50, 60, 70, 80 °C for 1 hour",++++ (inhibition zone >20 mm)
same,Inhibition zone after heat treatment,"Micrococcus luteus; 90, 100 °C for 30 min",+++ (inhibition zone =20 mm)
same,Biological stability at high temperature (in words),Micrococcus luteus; 90-100°C for 30 minutes,retained biological stability
same,Inhibition zone after heat treatment,Micrococcus luteus; 121 °C for 20 min,-
same,MIC of salivaricin 9,[1],-
same,MIC of salivaricin 9,[2],-
same,MIC of salivaricin 9,[3],-
same,MIC of salivaricin 9,[4],-
same,MIC of salivaricin 9,[5],-
same,Inhibition zone after enzyme treatment,"Proteinase K; Proteinase K 1 mg.ml^-1, adjacent wells, 50 µl each, 50°C 2 hours then 37°C overnight, indicator Micrococcus luteus, titre 800 AU/ml",-
same,Antimicrobial activity after enzyme treatment (in words),Proteinase K; treated with proteinase K,lost all antimicrobial activity
same,Preparation induces inhibitor production in ATCC11454,[6],No
same,"Propidium iodide uptake, geometric mean fluorescence intensity (MFI)",[7]; 4 µg/ml (MIC),did not show significant increase in the MFI
same,"Propidium iodide uptake, geometric mean fluorescence intensity (MFI)","[7]; 12 µg/ml (3-fold MIC), triplicate",significant MFI increments
same,"Propidium iodide uptake, geometric mean fluorescence intensity (MFI)","[7]; 20 µg/ml, triplicate",significant MFI increments
